{"source": "paper PMC4823791", "about": "“A dual drug regimen synergistically blocks human parainfluenza virus infection” (Scientific Reports, 2016)", "key": {"[1]": {"target": "T1, hPIV-3 HN (haemagglutinin-neuraminidase) (Human parainfluenza 3 virus (strain NIH 47885), UniProt P08492)", "T1 sequence (P08492 whole entry)": "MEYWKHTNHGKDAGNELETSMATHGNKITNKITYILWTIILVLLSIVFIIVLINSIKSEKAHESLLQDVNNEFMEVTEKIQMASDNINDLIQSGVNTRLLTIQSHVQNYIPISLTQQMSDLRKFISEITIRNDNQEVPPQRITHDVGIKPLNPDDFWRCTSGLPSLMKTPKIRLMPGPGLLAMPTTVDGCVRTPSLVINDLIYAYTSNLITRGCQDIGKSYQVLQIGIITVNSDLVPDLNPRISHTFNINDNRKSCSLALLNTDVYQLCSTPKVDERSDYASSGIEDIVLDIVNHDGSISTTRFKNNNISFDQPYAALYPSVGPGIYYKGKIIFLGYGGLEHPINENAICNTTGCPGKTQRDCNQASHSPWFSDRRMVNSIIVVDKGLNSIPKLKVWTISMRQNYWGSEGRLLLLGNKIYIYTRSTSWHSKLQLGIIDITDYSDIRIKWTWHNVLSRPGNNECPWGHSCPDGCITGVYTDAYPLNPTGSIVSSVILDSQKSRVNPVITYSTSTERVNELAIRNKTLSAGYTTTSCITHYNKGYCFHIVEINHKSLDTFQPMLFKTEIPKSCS", "test": "fluorogenic MUN neuraminidase inhibition screen", "assay_type": "biochemical", "source_text": "fluorogenic MUN neuraminidase inhibition screen on hPIV-3 HN (haemagglutinin-neuraminidase) | Evans blue and erythrosine sodium, with a neuraminidase inhibition of […]"}, "[2]": {"target": "T1, hPIV-3 HN (haemagglutinin-neuraminidase)", "test": "Lineweaver-Burk kinetics, MUN fluorescence", "assay_type": "biochemical", "conditions": "non-competitive; MUN 2-20 mM, suramin 0, 10, 16 μM; virus particles"}, "[3]": {"target": "T1, hPIV-3 HN (haemagglutinin-neuraminidase)", "test": "fluorogenic MUN neuraminidase inhibition assay", "assay_type": "biochemical", "conditions": "neuraminidase activity; 2 mM MUN, pH 4.6, 5 mM CaCl2, 37 °C, 30 min; PEG-precipitated intact virus; non-competitive"}, "[4]": {"target": "T1, hPIV-3 HN (haemagglutinin-neuraminidase)", "test": "Lineweaver-Burk kinetics, MUN fluorescence", "assay_type": "biochemical", "conditions": "virus particles; MUN 2-20 mM, so Km lies above the tested range (extrapolated): unreliable", "procedure": "Lineweaver-Burk kinetics, MUN fluorescence on hPIV-3 HN (haemagglutinin-neuraminidase) | constant (KM) value ... was calculated from this point of convergence"}, "[5]": {"target": "T1, hPIV-3 HN (haemagglutinin-neuraminidase)", "test": "STD-NMR", "assay_type": "binding", "conditions": "5 mM zanamivir alone, 50 mM NaOAc, 5 mM CaCl2, pD 4.6, 283 K; purified UV-inactivated virus particles"}}}
{"smiles": "O=C1OC2(c3ccccc31)c1cc(I)c(O)c(I)c1Oc1c2cc(I)c(O)c1I", "note": "[erythrosine sodium]", "values": [{"measurement": "inhibition at 100 µM", "setting": "[1]", "value": "92.8 ± 0.9", "unit": "%"}]}
{"smiles": "Cc1ccc(C(=O)Nc2ccc(S(=O)(=O)O)c3cc(S(=O)(=O)O)cc(S(=O)(=O)O)c23)cc1NC(=O)c1cccc(NC(=O)Nc2cccc(C(=O)Nc3cc(C(=O)Nc4ccc(S(=O)(=O)O)c5cc(S(=O)(=O)O)cc(S(=O)(=O)O)c45)ccc3C)c2)c1", "note": "[compound 7, suramin]", "values": [{"measurement": "Ki", "setting": "[2]", "value": "5.06 ± 0.62", "unit": "µM"}, {"measurement": "IC50", "setting": "[3]", "value": 13.5, "unit": "µM"}]}
{"smiles": "Cc1cc(-c2ccc(/N=N/c3ccc4c(S(=O)(=O)O)cc(S(=O)(=O)O)c(N)c4c3O)c(C)c2)ccc1/N=N/c1ccc2c(S(=O)(=O)O)cc(S(=O)(=O)O)c(N)c2c1O", "note": "[Evans blue]", "values": [{"measurement": "inhibition at 100 µM", "setting": "[1]", "value": "79.4 ± 1.8", "unit": "%"}]}
{"smiles": "CC(=O)N[C@H]1[C@H]([C@H](O)[C@H](O)CO)O[C@@](Oc2ccc3c(C)cc(=O)oc3c2)(C(=O)O)C[C@@H]1O", "note": "[compound 6, 2′-(4-methylumbelliferyl) α-D-N-acetylneuraminide]", "values": [{"measurement": "KM", "setting": "[4]", "value": "30.3 ± 1.02", "unit": "mM"}]}
{"smiles": "CC(=O)N[C@H]1[C@H]([C@H](O)[C@H](O)CO)OC(C(=O)O)=C[C@@H]1N=C(N)N", "note": "[compound 3, zanamivir]", "values": [{"measurement": "STD-NMR", "setting": "[5]", "value": "STD-NMR signals of both drugs were obtained, thus confirming their binding to HN"}]}
